Legend:
[1] = Activity screen of the amyloid library, 4NPA hydrolysis in plate reader (Fig 1); type: biochemical; conditions: for hydrolytic activity in the screen: condition 2: pH 7.3 with ZnCl2, 40 μM crude peptide, 250 μM zinc(II), A400
Procedure: The most common assay for hydrolytic activity in enzymes is with the chromogenic substrate p-nitrophenyl acetate (4NPA). Therefore, 4NPA was chosen permitting a direct comparison of the hits from the screen with natural enzymes. Using an absorbance plate reader, we screened the activity of the amyloid library at a peptide concentration of 40 μM, fibrillized at pH 4 or 7.3 and in the presence of divalent cations (250 μM Co^2+, Cu^2+, Mg^2+, Mn^2+, Ni^2+, or Zn^2+) (Fig 1). […] Imidazole is known to catalyze 4NPA hydrolysis under these conditions via an acyl intermediate and it was used as a standard to compare the measured activity of the peptides from plate to plate.
Fig 1 Activity screens of peptide amyloids in various conditions. The hydrolysis rates of 4NPA measured for each of the peptide amyloids (in columns) are shown as a ratio to the negative control (buffer) with color-codes as indicated at the bottom of the Figure. A color code from black (rate ratio of 1.0) to light blue (1.5) to red (19) is used. Activities below the negative control are indicated with smaller disks and color-coded from light grey to black. Occasionally observed negative reaction rates are indicated by small blue disks. The peptide amyloids were tested in a total of 46 conditions of which 19 conditions are shown here (in rows). The peptides are numbered according to Table 2, including a short nomenclature highlighting only the variable residues (e.g. the peptide Ac-YVDVHVSV-CONH2 is abbreviated DHS). The conditions are sorted top-down with the highest observed activity at the top. A detailed list of the conditions tested are shown in Table B in S1 File, while below a compressed introduction to the different conditions is listed: (2) pH 7.3 with ZnCl2 (control for 33 without heating), (33) condition 2 and heated to 95°C for 1 h prior to screening, (46) condition 2 and screened in 50% DMSO, (39) condition 2 and screened with 4.75 M NaCl, (40) condition 2 and screened with 0.2 M MgCl2, (45) condition 2 and screened in 90% EtOH, (38) condition 2 and screened with 0.2 M NaCl, (30) pH 7.3 with ZnCl2 and 1 M Na2SO4, (35) pH 7.3 and screened in 4.75 M NaCl, (34) pH 7.3 and screened in 0.5 M NaCl, (37) pH 7.3 and screened in 2 M MgCl2, (27) pH 7.3 with ZnCl2 and 0.2 M MgCl2, (6) pH 7.3 with NiCl2, (4) pH 7.3 with CoCl2, (1) pH 7.3 without other additives, (41) condition 2 and screened in 2 M MgCl2, (5) pH 7.3 with CuCl2, (36) pH 7.3 and screened in 0.2 M MgCl2 and (8) pH 4.0 without other additives.
The reaction buffer consisted of the same buffer as the fibrillization buffer without ZnCl2 and with 1.33 mM 4NPA prepared from a 100 mM stock in CH3CN. The samples of the amyloid library were mixed 1:3 with the reaction buffer yielding 40 μM peptide and, when present 250 μM zinc(II). The absorbance measurements were performed in a BMG Pherastar platereader with a 400 nm band-pass filter (10 nm bandwidth) in 96-well Nunclon Delta surface plates or 384-well Greiner Bio-One non-bind black μclear plates.
Table B: Amyloid growth and measurement conditions.
Growth = Measurement1 Growth⁄= Measurement1
Divalent2 pH3 T (◦C) Additive Divalent pH T (◦C) Additive
1. The conditions for ﬁbrillization and 4NPA assay are the same for 1-32 except that the 4NPA assay was always at 30 ◦C and the divalent concentration was one-fourth as high. For condition 33, the sample was heated to 95 ◦C for 1 hour prior to the 4NPA assay and for 34-46 the samples were ﬁbrillized in condition 1 or 2 and then transferred to the new conditions with additive just for the 4NPA assay.
2. Divalent concentration is 1 mM for growth and 250µM for 4NPA assay.
3. Grown and measured in 50 mM buﬀer: HEPES at pH 7.3, NaOAc at pH 4.0, or phthalate at pH 2.2.

[2] = Aggregation at pH 4 from soluble material left after 100,000 g centrifugation; type: physicochemical; conditions: 40 μM purified peptide, pH 4, soluble material in supernatant of 100,000 g centrifugation
[3] = X-ray fiber diffraction of aligned fibrils; type: physicochemical; conditions: washed pellets dried between glass capillaries, room temperature
Procedure: The samples were centrifuged, the pellet resuspended (ultrapure water or 10 mM NaOAc pH 4) and centrifuged again. The washed pellets were resuspended in a minimal amount of water and 4 μl of the suspension were pipetted between the melted ends of two glass capillaries, which were then left to dry overnight in a sealed petri dish. The dried material was placed in an X-ray beam (Rigaku MicroMax-007HF) at room temperature for a 20 min exposure and diffraction data was collected on a Mar345 image plate detector.
Table A and associated data: Biophysical characterization of library […]
1. Fold increase in ThT ﬂuorescence over background.
2. CD spectra classiﬁed as follows: (β+) has minimum near 217 nm, (β++) has minimum near 217 nm and a maximum near 197 nm, (−) signal too weak to interpret, (?) spectra not typical of any secondary […]
3. The peak position in amide I region is given in cm−1. […]
within the typical range of stretching frequencies forβ-structure (between dashed lines at 1638 cm−1 and […]
4. (+) ﬁbrils present or (−) absent in EM micrographs.
5. Diﬀraction images recorded for the aligned ﬁbrils of 5 diﬀerent peptides (see materials and methods).

Question: For “Ac-YVDVHVDV-NH2 [Peptide 25, Ac-YVDVHVDV-CONH2]”, which “relative activity in the screen in 50% DMSO” value ([1]; condition 46: fibrillized at pH 7.3 with ZnCl2, screened in 50% DMSO, also activity above positive control (200 μM imidazole)) is on record?
Answer: The value was “increased relative activity compared to the same condition without DMSO”.

Question: Which “aggregation behaviour at pH 4” value [2] does the source give for “Ac-YVHVHVDV-NH2 [Peptide 21, Ac-YVHVHVDV-CONH2]” here?
Answer: The value was “remained soluble for several days”.

Question: For “Ac-YVAVHVHV-NH2 [Peptide 27, Ac-YVAVHVHV-CONH2]”, which “X-ray diffraction of aligned fibrils” value [3] is on record?
Answer: The value was “cross-β”.

Question: And the “hydrolytic activity in the screen” value [1]?
Answer: Its value is “highest activity”.

Question: And the “activity in the screen under extreme conditions” value ([1]; high organic solvent content (50% DMSO, 90% EtOH) or high salt (4.75 M NaCl, 1 M Na2SO4), with ZnCl2)?
Answer: The value was “often significant”.

Question: For “Ac-YVHVHVHV-NH2 [Peptide 8, Ac-YVHVHVHV-CONH2]”, which “X-ray diffraction of aligned fibrils” value [3] is on record?
Answer: The value was “cross-β”.

Question: And the “hydrolytic activity in the screen” value [1]?
Answer: The value was “highest activity”.

Question: With “Ac-YVSVHVHV-NH2 [Peptide 9, Ac-YVSVHVHV-CONH2]” as the substance, how does the “hydrolytic activity in the screen” value [1] read?
Answer: Its value is “highest activity”.

Question: Which “hydrolytic activity in the screen” value [1] does the source give for “Ac-YVHVHVSV-NH2 [Peptide 11, Ac-YVHVHVSV-CONH2]” here?
Answer: The value was “highest activity”.
